Laboratory results as given in PMC11768370, “Etodolac Single Dose Metabolic Profile Elucidation: Pharmacokinetics and Adverse Events in Healthy Volunteers” (Pharmaceuticals, 2025).
Several values for one entry are separate records, joined by “and”; a condition that tells them apart may be missing. Equal values may be shown once. Read-outs that look alike come from different tables or passages of the source.

Experiment: Etodolac pharmacokinetic profile after a single dose, plasma LC-MS/MS, non-compartmental
Assay type: in vivo, human
Method: The analytical method used to calculate the pharmacokinetic parameters was validated according to Resolution No. 27/2012 of the Agência Nacional de Vigilância Sanitária (ANVISA). In this study, an LC-MS/MS system was used to quantify ETO. Chromatographic separations were performed using an LC-20AD analytical pump (Shimadzu, Kyoto, Japan) and a SIL-20A HT autosampler (Shimadzu, Kyoto, Japan), coupled to a Quattro Micro (Micromass, Newcastle, UK) system for triple quadrupole mass spectrometry analyses with an electrospray ionization (ESI) source (Waters, Newcastle, UK). The targeted analysis for ETO was detected by a multiple reaction monitoring (MRM) transition of 286 > 242, and mefenamic acid (Internal Standard) was detected by an MRM transition of 240 > 196 in negative acquisition mode. Data were collected using MassLynx 4.1 (Waters, Newcastle, UK). Further information on the validation method can be found in Supplementary Materials and Methods. WinNonLin 8.3 software (Pharsight, New Jersey, USA) was used to calculate pharmacokinetic parameters using non-compartmental statistics. […]
Table S3. Pharmacokinetics parameters. Pharmacokinetics parameters were calculated for each participant using the concentration across time data. […]
1. Volunteers and Study Design
The present study was nested in a single-dose, open-label, randomized pharmaco-bioequivalence study performed under biosafety and ethical standards. The reference formulation was an etodolac controlled-release coated tablet of 500 mg Flancox® with the administration of one single-dose tablet.
The volunteers were hospitalized at 7:00 p.m. and had supper before 9:00 p.m. After an overnight fast, a speciﬁc high-calorie diet was administered 30 minutes before taking the medication. They received (at ∼7:00 a.m.) a tablet of 500 mg of etodolac with 200 mL of water. Lunch: 4 hours after taking the medication. Afternoon snack: 8 hours after taking the medication. Dinner: 10 hours after […]
At 2 h before and 6, 8, and 12 h after the dose administration, vital signs were checked. The […] period was 24 h, during which period, blood samples (5 mL) from a suitable antecubital vein were collected, post-dosing via an indwelling catheter, into ethylenediaminetetraacetic acid […]
for 10 min at 4°C, and the plasma was stored at -70°C until assayed. Samples were handled under yellow light due to the photosensitivity of the drug.
2. Determination of Pharmacokinetic Proﬁle by LC-MS/MS
Chromatographic separations were performed in an LC-20AD analytical pump and SIL-20A HT autosampler from Shimadzu. The stationary phase employed an Agilent Polaris 5 µm C18-A 50 x […]
2,0mm column (Phenomenex). The mobile phase consisted of a solution of acetonitrile and 5 mM ammonium acetate, ﬂowing at 0.3 mL/min in proportion (8:2). The autosampler was maintained at 22°C, with an injection volume of 5 µl and 2.5-minute duration. Mass spectrometry was conducted on a Quattro Micro mass spectrometer from Micromass, equipped with an electrospray ionization (ESI) source. While operating in negative ionization mode with nitrogen as the desolvation gas, ESI source parameters were set as follows: source temperature of 100°C, desolvation temperature of 450°C, desolvation ﬂow of 800 L h-1, and capillary voltage of 3,50 kV. Etodolac was detected by a multiple reaction monitoring (MRM) transition of 286 > 242 using a cone voltage of 30 eV, and mefenamic acid was detected by an MRM transition of 240 > 196 using a cone voltage of 30 eV. Data was acquired using MassLynx 4.1.
2.1. Preparation of Standards and Quality Controls
Etodolac stock solution (108.5 µg/mL) was prepared in methanol and diluted with H2O to obtain the corrected stock solution (100 µg/mL) for the spiking calibration curve and quality controls (QC) samples. QC samples were prepared in the following levels: low, 0,6 µg/mL (LQC); medium, 50 µg/mL (MQC); high, 75 ug/mL (HQC); and a dilution, 42.5 µg/mL (DQC), calculated by taking the […]

[1] = Maximum of 37 participants, single dose 500 mg
[2] = Minimum of 37 participants, single dose 500 mg
[3] = individual participants P1-P37, single dose 500 mg

**Q.** Which AUC0-t [1] does the source give for `CCc1cccc2c3c([nH]c12)C(CC)(CC(=O)O)OCC3` (stereo not shown) [Etodolac] here?
**A.** 480.52 µg·h/mL

**Q.** What about the Cmax [1] of the same compound?
**A.** 59070 ng/mL

**Q.** And the Kel [1]?
**A.** 0.15 h⁻¹

**Q.** And the T1/2 [1]?
**A.** 20.09 h

**Q.** What about the Tmax [1] of the same compound?
**A.** 5.00 h

**Q.** What about the AUC0-t [2] of the same compound?
**A.** 94.14 µg·h/mL

**Q.** And the Cmax [2]?
**A.** 18690 ng/mL

**Q.** And the Kel [2]?
**A.** 0.035 h⁻¹

**Q.** What about the T1/2 [2] of the same compound?
**A.** 4.76 h

**Q.** What about the Tmax [2] of the same compound?
**A.** 0.75 h

**Q.** And the AUC0-t (both sexes, human, oral, 500 mg, Mean of 37 participants, single dose 500 mg, read-out: AUC0-t)?
**A.** 203 µg·h/mL

**Q.** And the Cmax (both sexes, human, oral, 500 mg, Mean of 37 participants, single dose 500 mg, read-out: Cmax)?
**A.** 35500 ng/mL

**Q.** What about the k el (both sexes, human, oral, 500 mg, Mean of 37 participants, single dose 500 mg, read-out: Kel (converted)) of the same compound?
**A.** 2.5e-05 s⁻¹

**Q.** What about the half-life (both sexes, human, oral, 500 mg, Mean of 37 participants, single dose 500 mg, read-out: T1/2 (converted)) of the same compound?
**A.** 8.2 h

**Q.** And the Tmax (both sexes, human, oral, 500 mg, Mean of 37 participants, single dose 500 mg, read-out: Tmax)?
**A.** 2.24 h

**Q.** What about the k el (both sexes, human, oral, 500 mg, overall mean (SD), 37 healthy volunteers, single dose Flancox 500 mg tablet after high-calorie diet, read-out: elimination rate constant (Kel) (converted)) of the same compound?
**A.** 2.5e-05 s⁻¹

**Q.** And the half-life (both sexes, human, oral, 500 mg, overall mean (SD), 37 healthy volunteers, single dose Flancox 500 mg tablet after high-calorie diet, read-out: half-life (T1/2) (converted))?
**A.** 8.2 h

**Q.** And the Cmax (both sexes, human, oral, 500 mg, overall mean (SD), 37 healthy volunteers, single dose Flancox 500 mg tablet after high-calorie diet, read-out: maximum concentration (Cmax))?
**A.** 35500 ng/mL

**Q.** And the Tmax (both sexes, human, oral, 500 mg, overall mean (SD), 37 healthy volunteers, single dose Flancox 500 mg tablet after high-calorie diet, read-out: time to maximum concentration (Tmax))?
**A.** 2.24 h

**Q.** And the AUC0-t (both sexes, human, oral, overall mean (SD), 37 healthy volunteers, single dose Flancox 500 mg tablet after high-calorie diet, read-out: area under the curve from time zero to time t (AUC0-t))?
**A.** 203 µg·h/mL

**Q.** And the Cmax [3]?
**A.** 45680 ng/mL

**Q.** What about the Tmax [3] of the same compound?
**A.** 2.25 h and 2.75 h and 1.50 h and 3.00 h and 1.25 h and 3.67 h and 4.00 h and 3.33 h and 2.50 h and 1.00 h and 2.00 h and 1.75 h and 5.00 h and 0.75 h
